US7425567B2, “Piperidine derivative compounds and drugs containing the compounds as the active ingredient” (Ono Pharmaceutical Co., Ltd., priority 2002, dated 2008)

Legend:
TNF-α production = TNF-α production inhibitory effect in LPS-stimulated heparinized blood; type: cell-based; conditions: blood of a healthy person, 6 hours incubation, human TNF-α ELISA
Description: A heparinized blood sample collected from a healthy person was dispensed in 180 μl/well into a 96-well plate. A solution of compound 1 (final concentration of DMSO: 0.1% or less) was dispensed at 10 μl and the plate was allowed to stand at 37° C. for 30 minutes in a 5% CO2 incubator. The reaction was initiated by adding 10 μl of LPS solution. After 6 hours of incubation in a CO2 incubator (5% CO2, humidified), the plate was shaken and then centrifuged at 300×g for 5 minutes to recover 50 μl of the supernatant (blood plasma). The amount of TNF-α in the supernatant was measured using a human TNF-α ELISA kit (DIACLONE Cat. No. 850.090.096) in accordance with the method attached thereto.

PDE4 = experiment: In vitro enzyme assay, PDE4 inhibitory activity; type: biochemical; conditions: PDE4 enzyme solution from U937 cells (derived from human monocyte), 3H-cAMP substrate, room temperature, 30 minutes; read-out: IC50 (concentration of 50% inhibition of PDE4 activity)
Description: U937 cells (derived from human monocyte) were cultured in PRMI 1640 medium containing 10% bovine fetal serum. The U937 cells were harvested and homogenized in 50 mM Tris-HCl buffer [pH 7.5, containing PMSF (1 mM), leupeptin (1 μg/ml) and pepstatin A (1 μg/ml)]. After centrifugation (at 15,000 rpm for 10 minutes), the supernatant was recovered and filtered through a 0.45 μm filter. The sample was applied to MonoQ (manufactured by Pharmacia, strong anion exchange resin) column and eluted by a density gradient of 0 to 0.8 M NaCl. Fractions from which the PDE activity was disappeared by 10 μM rolipram (a PDE4-selective inhibitor) were recovered and used as the enzyme solution for the measurement of PDE4 inhibitory activity.
The enzyme activity was measured by the following method. […] To an alumina column (100 μl), was applied 50 μl of the supernatant, eluted with 80 μl of 0.005 N hydrochloric acid, and radioactivity of the eluate was measured.
PDE4 inhibitory activity ratio of the compound of the present invention of formula (I) was calculated by the following equation: PDE4 activity inhibitory ratio (%)=(1−radioactivity in the presence of the compound of the present invention of formula (1)/radioactivity in the absence of the compound of the present invention of formula (I))×100 […]

## N#CC1(c2ccc(OC(F)F)c(OC3CCCC3)c2)CCN(CC(=O)O)CC1 [compound 1, 2-(4-(3-cyclopentyloxy-4-difluoromethoxyphenyl)-4-cyanopiperidin-1-yl)acetic acid monohydrate]
TNF-α production
  inhibitory activity against TNF-α production: dose-dependent inhibitory activity
PDE4
  IC50: 42 nM
